# Assay results reported in article PMC7699256, “In Silico Analysis and In Vitro Characterization of the Bioactive Profile of Three Novel Peptides Identified from 19 kDa α-Zein Sequences of Maize” (Molecules, 2020).
# Like-named read-outs stand apart in the source and are kept apart here. No end group written: not given here.
# Target: T1, angiotensin-converting enzyme (ACE) (Homo sapiens, UniProt P12821)
# T1 construct: purchased Sigma-Aldrich CS0002
# Experiment: ACE inhibition assay (ACE Activity Assay kit, fluorogenic substrate)
# Format: biochemical
# Description: ACE inhibitory activity was evaluated using the ACE Activity Assay test (Sigma-Aldrich CS0002, Saint Louis, MI, USA). This assay is based on the hydrolysis of angiotensin I by ACE to yield active angiotensin II. This test uses a synthetic fluorogenic peptide as the substrate, and the resulting fluorescence is proportional to ACE activity. Briefly, all reagents were diluted in the assay buffer, according to the manufacturer’s instructions. A total of 10 µL of peptide sample and positive control (captopril PHR1307, Sigma-Aldrich, Saint Louis, MI, USA), diluted in assay buffer at five different concentrations, and negative control (assay buffer) were pipetted into the wells of a 96-well black opaque plate. Then, 40 µL of ACE, provided in the kit, was added to sample and control wells. Sample blanks consisted of 50 µL of assay buffer. A standard curve was prepared in 100 µL assay buffer per well ranging from 0 to 8 nmol for calculating enzymatic activity. Subsequently, 50 µL of fluorogenic substrate warmed to 37 °C was added to experimental, control and blank sample wells. The reaction was carried out at 37 °C and fluorescence was read every minute for 5 min in a microplate reader (Biotek Synergy HTX, Winooski, VT, USA). The absorbance of excitation and emission were set at 320 nm and 405 nm, respectively. All determinations were done in duplicate. Linear regressions were determined to calculate the enzymatic activity for each sample dose.
# One unit is defined as the amount of enzyme that releases one nmol of fluorescent substrate in 1 min at 37 °C. The results were expressed as milliunits of enzyme (mU). Finally, the IC50 of each peptide sample and captopril was determined using regression analysis of the corresponding dose–response curves. […] This value was expressed as µM.
# [1] = fluorogenic substrate, 37 °C, fluorescence (ex 320/em 405 nm) every minute for 5 min, five concentrations, value ± SD, n = 2, read-out: IC50 for ACE inhibition
# [2] = own IC50 values converted to mg/mL for comparison with the literature, read-out: IC50 for ACE inhibition expressed in mg/mL (converted)
# T1 sequence (P12821 30-1306, species assumed): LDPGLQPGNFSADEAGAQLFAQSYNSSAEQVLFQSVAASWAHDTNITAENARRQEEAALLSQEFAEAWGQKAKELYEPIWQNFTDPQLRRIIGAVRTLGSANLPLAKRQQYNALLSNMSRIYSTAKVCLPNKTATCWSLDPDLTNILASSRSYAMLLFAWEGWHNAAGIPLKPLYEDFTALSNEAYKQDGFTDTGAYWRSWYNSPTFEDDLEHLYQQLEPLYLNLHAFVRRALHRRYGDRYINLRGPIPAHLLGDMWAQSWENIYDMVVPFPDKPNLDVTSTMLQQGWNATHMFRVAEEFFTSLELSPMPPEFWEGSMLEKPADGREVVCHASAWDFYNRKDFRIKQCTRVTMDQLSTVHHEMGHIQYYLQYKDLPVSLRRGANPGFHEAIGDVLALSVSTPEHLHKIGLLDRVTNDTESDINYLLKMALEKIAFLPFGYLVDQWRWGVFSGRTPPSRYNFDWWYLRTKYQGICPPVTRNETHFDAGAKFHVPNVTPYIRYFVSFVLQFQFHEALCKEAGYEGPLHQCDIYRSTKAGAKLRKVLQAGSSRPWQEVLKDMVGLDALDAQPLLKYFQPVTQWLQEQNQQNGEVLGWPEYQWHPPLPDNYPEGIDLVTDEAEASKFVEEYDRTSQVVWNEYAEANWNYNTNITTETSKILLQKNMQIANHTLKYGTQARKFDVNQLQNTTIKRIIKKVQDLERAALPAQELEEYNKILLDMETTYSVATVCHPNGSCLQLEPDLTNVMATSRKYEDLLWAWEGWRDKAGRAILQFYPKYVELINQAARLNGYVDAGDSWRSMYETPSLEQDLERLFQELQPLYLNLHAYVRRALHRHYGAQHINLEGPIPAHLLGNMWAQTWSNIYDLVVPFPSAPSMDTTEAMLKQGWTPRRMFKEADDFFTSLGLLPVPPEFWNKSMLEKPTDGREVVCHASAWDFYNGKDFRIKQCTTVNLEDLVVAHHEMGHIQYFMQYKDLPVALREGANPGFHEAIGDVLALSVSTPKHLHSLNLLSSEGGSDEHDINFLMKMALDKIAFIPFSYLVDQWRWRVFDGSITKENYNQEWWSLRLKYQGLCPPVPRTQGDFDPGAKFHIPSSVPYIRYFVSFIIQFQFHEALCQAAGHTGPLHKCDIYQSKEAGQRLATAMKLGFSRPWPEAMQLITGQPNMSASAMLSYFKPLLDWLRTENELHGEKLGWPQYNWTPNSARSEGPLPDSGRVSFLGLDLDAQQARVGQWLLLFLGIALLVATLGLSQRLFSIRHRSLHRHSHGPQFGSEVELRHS
IC50 [1] [µM],IC50 [2] [µM],Substance
202 ± 0.63,202,AYLQAQQLLPFNQLVRSPAA-NH2 [19ZP3]
14.19 ± 0.12,14.4,FNQLAALNSAAYLQQQQLLPFSQLA-NH2 [19ZP1]
174 ± 49.6,174,QLADVSPAAFLTQQQLLPFYLHAM-NH2 [19ZP2]
